“And” between values parts separate entries of the source, which are not always exact repeats. Equal entries are not always repeated. Residues, ends and D or L forms follow the SMILES beside them. *: point of attachment. Cbz = O=C(OCc1ccccc1)*; CH2F = FC*
Experiments:
Assay type in all cases: cell-based
[1] = tested on: human embryonic stem cells (KhES-1); assay: Cloning efficiency (colony formation) of dissociated human ES cells at low density on MEF feeder layer; settings: for cloning efficiency compared to without the inhibitors: Fasudil/HA1077 10 μM, H-1152 200 nM, other kinase inhibitors at ranges of b100
Text: The Human embryonic stem cells used for the experiments described herein were embryonic stem cells (KhES-1, KhES-2 and KhES-3) from human blastocysts established in the laboratory of Norio Nakatsuji, at the Institute for Frontier Medical Sciences, Kyoto University, which were distributed and used (mainly KhES-1) following the human embryonic stem cell guidelines of the Japanese government. In accordance with the method of the Nakatsuji laboratory (Suemori et al., Biochem Biophys Res Commun. 345, 926-32 (2006)), undifferentiated human embryonic stem cells were cultured on a plastic culture dish with mouse embryonic fibroblasts (inactivated with mitomycin, MEF) seeded as a feeder layer of cells. More specifically, the culture medium containing comprising KSR (Invitrogen/Gibco-BRL) at the final concentration of 20%, 1×NEAA (non-essential amino acids, Invitrogen/Gibco BRL), 2 mM L-giutaminic acid and 0.1 mM 2-mercaptoethanol in D-MEM F12 (Sigma D6421) was used, and the culturing was performed at 37° C., 5% CO2. Passaging was performed in every three or four days, and the embryonic stem cells were detached from the feeder layer using the dissociation liquid (containing 0.25% trypsin, 1 mg/mi collagenase IV solution, 1 mM CaCl2 in a phosphate buffered saline; all of which from Invitrogen/Gibco-BRL), followed by dissociated into small cell clumps (of about 50-100 cells) by pipetting, and then were seeded on the feeder layer which had been formed from seeding MEF on the day before.
The cell death inhibiting effect and the influence on cloning efficiency, of ROCK inhibitor, for the human embryonic stem cell culture after dissociation to single cells were examined as follows. […] The embryonic stem cell clumps ware dissociated to single cells by trypsin digestion (0.25% trypsin—EDTA, at 37° C. for 5 minutes), and seeded on a MEF feeder layer in 96 well culture plates at low density (500 cells/0.32 cm^2 in 0.15 ml of medium). The number of formed colonies was counted six days after culture in the maintenance culture medium. ROCK inhibitor Y-27632 was added at the concentration of 10 μM one hour prior to detaching the cells from the feeder layer, and the same amount was added to culture in the same amount after the detachment.
The effects of other ROCK inhibitors on the cloning efficiency of human embryonic stem cells in maintenance culture were evaluated using methods as described in example 1. The ROCK inhibitors, Fasudil/HA1077 (10 μM) and H-1152 (200 nM) were used. Also, inhibitors for other kinases were used for reference. The inhibitors for other kinases used were: cAMP-Rp (1-100 μM) and KT5720 (5-500 nM), which are protein kinase A inhibitors; bisindolylmaleimide (0.01-5 μM) and staurosporine (1-50 nM), which are protein kinase C inhibitors; PD98059 (0.5-50 μM), which is an MAPK inhibitor; LY294002 (1-50 μM), which is a PI3K inhibitor; and ML-7 (0.3-30 μM), which is an MLCK inhibitor.

human ES cells (KhES-1) [2] = assay: TUNEL apoptosis assay in suspension culture of dissociated human ES cells; settings: after 2-day suspension culture; 80% in non-supplemented control
Description: (§1) Human ES cells subjected to maintenance culture were detached as small cell clumps (aggregates) from feeder cells in the same manner as in Example 1, and after removal of residual feeder cells, they were dissociated into single cells by trypsin digestion. After centrifugation, 2×10^5 cells were dissociated in serum-free culture medium for post differentiation induction (Watanabe et al., Nature Neuroscience 8, 288-296, 2005; supplemented with G-MEM, KSR and 2-mercaptoethanol, KSR was added at a concentration of 20%). The singly-dissociated human ES cells (1.0×10^5 cells/ml) were suspension-cultured in a non-cell adhesive 35 mm culture plate to form aggregates, and were cultured in the same culture medium for 2-6 days (SFEB method; See the above reference of Watanabe et al.). After 2-day culture, the percentage of apoptic cells was measured by TUNEL method (MEBSTAIN Apoptosis kit Direct, MBL). Treatment with ROCK inhibitor, Y-27632, was initiated at 1 hour before cell separation in the same manner as in Example 1, and the inhibitor was added to maintenance culture medium also after dissociation. For comparison, caspase inhibitor (ZVAD; 10 μM) and BDNF/NT-3/NT-4 (mixture of 50 ng/ml each), whose apoptosis suppressive effect has been reported, were used to conduct the experiment. In addition, the number of surviving cells on day 6 was counted in each case.

hES cells (KhES-3) = settings: human, 3 months
Description: FIGS. 4A-4L—Analysis of hES cells cultured in the presence of Y-27632 at low density. (FIGS. 4A-4C) Immunostaining of E-cadherin (FIG. 4A), Oct3/4 (FIG. 4B) and SSEA-4 (FIG. 4C) in Y-27632-treated hES cells (KhES-1) after extended passaging (30 times) at low density with Y-27632 treatment. Lower panels show DAPI staining (blue). (FIGS. 4D-4G) Histological analysis (hematoxylin-eosin staining, […] paraffin section) of teratoma tissues formed after subcapsular injection of hES cells (KhES-1) following extended passaging with Y-27632 into SCID mouse testes. (FIG. 4D) Cartilage, (FIG. 4E) neuroepithelium, (FIG. 4F) pigmented epithelium, and (g) gut-like mucosa with columnar epithelium. (FIG. 4H, FIG. 4I) After extended passaging involving low-density culture with Y-27632 treatment, efficient colony formation from dissociated hES cells (32.5±11%; KhES-1) remained dependent on Y-27632 (FIG. 4I) and few colonies were seen without it (FIG. 4H). (FIG. 4J) Dose-response relationship of two selective ROCK inhibitors (Y-27632, Fasudil; the cloning efficiency was 1.3±0.8% and 25.1±1.6% without and with 10 μM Fasudil; P<0.001, n=3) and two unrelated kinase inhibitors (cAMP-Rp, LY294002) on colony formation (KhES-1). Y-axis, ratios of promoting activity of colony formation to that with 10 μM Y-27632. […]

human ES cells [3] = assay: Maintenance culture of singly-dissociated human ES cells on MEF with different time courses of treatment (survival, growth, apoptosis); settings: for population doubling time: days 2 to 6 after start of dissociation culture
Description: As for the maintenance culture of singly-dissociated human ES cells, in order to examine whether Y-27632 promotes cell survival at the early phase of dissociation culture, Y-27632 treatment time was divided into the following three groups to compare cell survival-promoting effects in maintenance culture. Group 1: Y-27632 treatment (10 μM, same below) was conducted as 1 hour-pretreatment and only for the first 12 hours of culture after dissociation in the process of dissociation culture of human ES cells. Group 2: Y-27632 treatment was conducted as 1 hour-pretreatment and for the entire culture period after dissociation in the process of dissociation culture of human ES cells. Group 3: No Y-27632 treatment was conducted. In these groups, surviving cells on day 3 per seeded cells (5×10^4 cells per one well of a 6-well plate) were counted in maintenance culture system on MEF layer. In the same experiment as in the above Example 7, the effect of Y-27632 on the cell growth for 6 days after the start of dissociation culture was examined in Groups 1 and 2 by extending the culture period to 6 days.

human ES cells [4] = assay: Differentiation induction into neuronal and brain precursor cells by SFEB method from singly-dissociated human ES cells
Text: Human ES cells subjected to maintenance culture were detached from feeder cells as small cell clumps in the same manner as in Example 4, and after removal of residual feeder cells, they were dissociated into single cells by trypsin digestion. After centrifugation, cells were dissociated into culture medium for differentiation induction at 2×10^5 cells/mL, and were suspension-cultured using a non-cell adhesive culture plate to conduct serum-free culture (SFEB method) of suspended aggregates. In addition, Nodal inhibitor LeftyA (1 μg/ml, R&D), Wnt inhibitor Dkk1 (500 ng/ml, R&D) and BMP inhibitor BMPR1A-Fc (1.5 μg/ml, R&D) were added for the first 10 days after the start of culture for differentiation induction. After serum-free suspension culture for 16-35 days, the cell aggregates were fixed and immunostained by fluorescence antibody method. Treatment with the ROCK inhibitor, Y-27632, was initiated at 1 hour before cell separation in the same manner as in Example 1, and the inhibitor was added to maintenance culture medium for the first six days also after dissociation. For the differentiation into brain precursor cells, on day 25 of SFEB culture, floating cell aggregates were transferred into a poly-D-lysine/laminin/fibronectin-coated culture slide, and were cultured in an adhesion state for additional 10 days. In the adhesion culture, Neurobasal medium, supplemented with B27 (vitamin A-free) and 2 mM L-glutamine (both supplied by Gibco-BRL), was used as a culture medium.

human ES cells (KhES-1) [5] = assay: Feeder-free culture of singly-dissociated human ES cells, colony formation; settings: 10 μM Y-27632, feeder-free, MEF-conditioned medium, 500 cells/well; less than 0.2% untreated
Description: Specifically, according to the above literature, MEF cells cultured to confluency were lysed on a culture dish by deoxycholate method to leave only extracellular matrix. Singly-dissociated human ES cells (500 cells/well of a 96-well plate) were seeded onto them under Y-2763 treatment (10 μM or 0 μM) by the same method as for the routine culture on MEF cells (abovementioned Example). Conditioned medium, in which human ES cell maintenance medium and MEF were preliminarily cultured for one day, was used as a culture medium. The number of human ES cell colonies formed 5 days later were counted.

human ES cells (KhES-1) [6] = assay: Number of surviving cells in suspension culture (SFEB) of dissociated human ES cells; settings: 8% in non-supplemented group
Description: as §1

[7] = tested on: human embryonic stem cells; assay: Cloning efficiency at clonal density (one cell per well, 96 well plates) on MEF; settings: 10 μM, under 1% without inhibitor
Description: The cell death inhibiting effect and the influence on cloning efficiency, of ROCK inhibitor, for the human embryonic stem cell culture after dissociation to single cells were examined as follows. […] The number of formed colonies was counted six days after culture in the maintenance culture medium. ROCK inhibitor Y-27632 was added at the concentration of 10 μM one hour prior to detaching the cells from the feeder layer, and the same amount was added to culture in the same amount after the detachment. Also, to evaluate whether promotion of cloning would be caused by the autocrine factor of human embryonic stem cell, a similar experiment was performed in 96 well culture plates at clonal density (one cell per well) of human embryonic stem cells, and the cloning efficiency was determined.

Cc1cncc2cccc(S(=O)(=O)N3CCCNC[C@@H]3C)c12 [H-1152]
cloning efficiency compared to without the inhibitors [1]: significant enhanced cloning efficiencies

COC(=O)C[C@H](NC(=O)[C@H](C)NC(=O)[C@@H](NC(=O)OCc1ccccc1)C(C)C)C(=O)CF [ZVAD] (Cbz-Val-Ala-Asp(OMe)-CH2F)
TUNEL-positive (apoptotic) cells (human ES cells (KhES-1) [2]): 72%

O=S(=O)(c1cccc2cnccc12)N1CCCNCC1 [Fasudil]
cloning efficiency ([1]; 10 μM Fasudil, KhES-1, 1.3±0.8% without, P<0.001, n=3): 25.1±1.6%
cloning efficiency compared to without the inhibitors [1]: significant enhanced cloning efficiencies

C[C@@H](N)[C@H]1CC[C@H](C(=O)Nc2ccncc2)CC1 [Y-27632]
normal karyotype (hES cells (KhES-3)): 100%
TUNEL-positive (apoptotic) cells (human ES cells (KhES-1) [2]): 9%
surviving cells on day 3 per seeded cells (human ES cells [3]; Group 1: 10 μM, 1 hour pretreatment and first 12 hours after dissociation only): 270%
number of cells on day 6 relative to initially seeded cells (human ES cells [3]; Group 1: first 12 hours only): 670%
population doubling time (human ES cells [3]; Group 1): 49.0 h
surviving cells on day 3 per seeded cells (human ES cells [3]; Group 2: 10 μM, 1 hour pretreatment and entire culture period): 290%
number of cells on day 6 relative to initially seeded cells (human ES cells [3]; Group 2: entire culture period): 860%
population doubling time (human ES cells [3]; Group 2): 41.5 h
percentage of apoptosis (active Caspase 3-positive cells) (human ES cells [3]; both Groups 1 and 2, days 3 and 5): less than 1%
Oct3/4 positive cells (undifferentiated-state ES cell marker) (human ES cells [4]; day 24 of differentiation culture): less than 10%
Pax6-positive cells (human ES cells [4]; day 24 of differentiation culture, Y-27632 first six days, with LeftyA, Dkk1, BMPR1A-Fc): about 80%
cell aggregates with many Bf1 positive cells (brain precursor marker) (human ES cells [4]; day 35 of differentiation culture): about 60%
cloning efficiency per seeded human ES cell, feeder-free (human ES cells (KhES-1) [5]): 10.2% and 10.2±1.2%
surviving cells on day 6 (of plated cells) (human ES cells (KhES-1) [6]): 70%
cloning efficiency [7]: 25%
cloning efficiency (ratio of formed colonies to initially seeded human embryonic stem cells) ([1]; 10 μM Y-27632, 500 cells/well on MEF, six days culture, 1% without inhibitor): 27%
colony formation from dissociated hES cells after extended passaging ([1]; KhES-1 after extended passaging (low-density culture with Y-27632 treatment), few colonies without it): 32.5±11%

Reference: US11898161B2, “Stem cell culture medium and method” (RIKEN, priority 2006, dated 2024)
